One series deals with ob/ob (C57 B1/6J) mice. In words: Hypoglycemic effect in diabetic ob/ob mice. Type of series: in vivo, mouse. How it is done: Hypoglycemic Effect in Diabetic OB/OB Mice
Procedure: In each study, male or female ob/ob (C57 B1/6J) mice and their mean litermates (ob/+ or +/+, Jackson Laboratories) ages 2 to 5 months (10 to 65 g) were randomized according to plasma glucose into 4 groups of 10 mice. The mice were housed 5 per cage and were maintained on normal rodent chow with water ad libitum. Mice receive compound daily by gavage (suspended in 0.5 ml of 0.5% methyl cellulose); dissolved in the drinking water; or admixed in the diet. The dose of compounds given ranges from 2.5 to 200 mg/kg body weight/day. Body weight of fed animals was measured at the beginning of each week and doses for the entire week were calculated using this weight and were expressed in terms of the active moiety of the compound. Control mice receive vehicle only. […]
Measurements: The plasma was isolated by centrifugation and the concentration of glucose was measured enzymatically on an Abbott V. P. Analyzer and the plasma concentration of insulin was determined by radioimmunoassay (Heding, 1972)
Analysis of variance followed by Dunnett's Comparison Test (one-tailed) was used to estimate the significant difference between the plasma glucose values from the control group and the individual compound treated groups (CMS SAS Release 5.18). A compound will be considered active if the difference has a p<0.05.

Series [1] has as its system Hepatocytes Isolated and Cultured from Obese Zucker (fa/fa) Rats. The series is described as follows: Inhibition of glucose output from hepatocytes isolated and cultured from obese Zucker (fa/fa) rats. Type of series: cell-based, rat. To be noted: inhibition of glucose output vs glucagon stimulated cultured hepatocytes. The protocol: Inhibition of Glucose Output from Hepatocytes Isolated and Cultured from Obese Zucker (fa/fa) Rats and their Lean Controls
Culturing of Hepatocytes: Isolated hepatocytes were plated on 12 well rat-tail collagen coated plates at a cell density of 5×10(5) cells/ml (approximately 1 ml of cell suspension per well). Following a one hour attachment period in which plates were incubated in a CO2 incubator at 37 deg C. (95% O2, 5% CO2), the supernatant containing unattached hepatocytes was removed and replaced with fresh media (1 ml/well) containing 1 μM dexamethasone and 100 pM insulin. Cells were maintained at 37 deg C. for 48 hours in a 95% O2, 5% CO2 environment. At the end of the first 24 hours, the media was aspirated off of the wells and replaced with fresh media containing the same concentrations of dexamethasone and insulin as described earlier. Treatment with Drugs and Assessment of Glucose Output: Drugs were routinely added with fresh media 24 hours after the initial attachment period. Eighteen hours later, media was aspirated and 500 μl of fresh Hank's buffer, Buffer D (glucose-free) supplemented with hormones, gluconeogenic substrates and drug(s) was added to each well and incubated for 4 hours. At the end of the 4 hour incubation, media from each well was removed and assayed for glucose content using the hexokinase/glucose-6-phosphate dehydrogenase coupled assay on the Boehringer Mannheim model 911 auto analyzer. Glucose concentration was expressed as μg/ml. Three of the plates from each treated group were frozen for subsequent determination of protein content. Two plates from each treatment group were used to assess the cytotoxicity of drug(s) and other agents as determined by the MTT (tetrazolium) dye reduction method (see below).
Assessment of Cytotoxicity using MTT Dye Reduction Assay: Two plates with no insulin treatment and two plates with 10^−8 M insulin treatment were used for the MTT dye reduction assay. Following removal of media from the plates for measurement of glucose output, wells were washed once with 1 ml of Hank's buffer (0.5% BSA). Aliquots of […] of Hank's buffer (1.1% BSA) and […] MTT solution (5 mg MTT/ml in phosphate buffered saline (PBS) filtered through 0.45 micron syringe filter) were added to each well. Plates were incubated for one hour at 37 deg C. After one hour incubation, the MTT dye solution was aspirated off and […] of HCL/isopropanol solution (8 ml of 1 N HCL and 192 ml of isopropanol) was added to each well. HCL/isopropanol solution was mixed by drawing liquid into a pipetman 2 to 3 times and then carefully transferred into a 96 well flat bottom plate. The 96 well plate was read on a plate reader (UV max kinetic microplate reader, Molecular Devices) at 570 nm test wavelength and 650 nm reference wavelength. The results were expressed as % inhibition from the control (lactate and glucagon treated) well.
Protein test procedure: Three plates with no insulin treatment and three plates with 10^−8 M insulin treatment were used for protein determination. After supernatant has been removed for determination of glucose output the plates were frozen and stored at −20 deg C. until ready to assay for protein content. Prior to determination of protein the plates were defrosted at room temperature for 15 minutes. An aliquot of 1 ml 0.1 N NaOH was added to each well. Plates were incubated at 4 deg C. overnight. Solutions for measurement of protein content were mixed by pipetting the NaOH solution up and down several time with a 1 ml pipette and then transferring to a small polyethylene tube. Protein determination was based on that of the Pierce BCA protein assay protocol (Pierce cat. no. 23223). A set of protein standards (0.2, 0.4, 0.6, 0.8, and 1 mg/ml BSA) was prepared by serial dilution of 1 mg/ml bovine serum albumin with 0.1 N NaOH, and 40 μl of each standard, or control blank was pipetted into a 96-well plate in duplicate. Each unknown protein sample (40 μl) was tested in triplicate. […]

This note sets out measurements from US6930131B2, “Aryl substituted 3-ethoxy phenyl trifluoromethane sulfonamides for the treatment of non-insulin dependent diabetes mellitus (NIDDM)” (Wyeth, priority 2002, dated 2005).

What is called melting point is the temperature, or range, at which the solid turns liquid. Usually IC50 stands for the concentration that gives 50% inhibition. Low readings indicate inhibition by little substance, high ones a need for much substance.

Structures are written as SMILES.

Consider `O=S(=O)(Nc1cccc(CCOCc2ccc(-c3ccc(C(F)(F)F)cc3)cc2)c1)C(F)(F)F` [Example 2, C,C,C-trifluoro-N-{3-[2-(4′-trifluoromethyl-biphenyl-4-ylmethoxy)-ethyl]-phenyl}-methanesulfonamide], for which the melting point lay in the range of 98 to 100 °C. In addition, in the series with ob/ob (C57 B1/6J) mice (5 mg/kg p.o.), the “Reduction in Plasma Glucose Day 1 (6 hr) p.o.” value is −8% and the “Reduction in Plasma Glucose Day 3 (6 hr) p.o.” value is −34%.
Molecule `O=S(=O)(Nc1cccc(CCOCc2ccc(-c3ccc(Cl)cc3)cc2F)c1)C(F)(F)F` [Example 11, N-{3-[2-(4′-Chloro-3-fluoro-biphenyl-4-ylmethoxy)-ethyl]-phenyl}-C,C,C-trifluoro methane sulfonamide] had an IC50 in series [1] of 10 µM.
The molecule `CC(C)(C)c1ccc(-c2ccc(COCCc3cccc(NS(=O)(=O)C(F)(F)F)c3)c(F)c2)cc1` [Example 19, N-{3-[2-(4′-tert-Butyl-3-fluoro-biphenyl-4-ylmethoxy)-ethyl]-phenyl}-C,C,C-trifluoro-methanesulfonamide] registered a melting point of 89 to 90 °C. The IC50 in series [1] (Rattus norvegicus, Hepatocyte) came out at 8 µM.
`O=S(=O)(Nc1cccc(CCOCc2ccc(-c3ccc(F)cc3)cc2Cl)c1)C(F)(F)F` [Example 22] came in with an IC50 in series [1] of 2.2 µM. This counts as single-digit micromolar.
In the case of `O=S(=O)(Nc1cccc(CCOCc2ccc(-c3ccc(Cl)cc3)cc2Cl)c1)C(F)(F)F` [Example 23, N-{3-[2-(3-Chloro-4′-chloro-biphenyl-4-ylmethoxy)-ethyl]-phenyl}-C,C,C-trifluoro methane sulfonamide], in the series with ob/ob (C57 B1/6J) mice (5 mg/kg p.o.), the “Reduction in Plasma Glucose Day 1 (6 hr) p.o.” value is given as −37% and the “Reduction in Plasma Glucose Day 3 (6 hr) p.o.” value is on record as −37%. Besides, the midpoint of inhibition in series [1], the IC50, lay at 1.7 µM.
As to `COc1ccc(-c2cc(COCCc3cccc(NS(=O)(=O)C(F)(F)F)c3)ccc2F)cc1` [Example 42, C,C,C-Trifluoro-N-{3-[2-(6-fluoro-4′-methoxy-biphenyl-3-yl-methoxy)-ethyl]-phenyl}-methanesulfonamide], the melting point lay within 70 to 71 °C. In the series with ob/ob (C57 B1/6J) mice (10 mg/kg p.o.), the “Reduction in Plasma Glucose Day 1 (6 hr) p.o.” value is −14% and the “Reduction in Plasma Glucose Day 3 (6 hr) p.o.” value was −14%.
On to `CC(C)(C)c1ccc(-c2nc(COCCc3cccc(NS(=O)(=O)C(F)(F)F)c3)cs2)cc1` [Example 43, N-(3-{2-[2-(4-tert-Butyl-phenyl)-thiazol-4-ylmethoxy]-ethyl}-phenyl)-C,C,C-trifluoro-methanesulfonamide], for which the melting point was in the range of 110 to 112 °C. The molecule further returned an IC50 in series [1] (Rattus norvegicus, Hepatocyte) of 6.9 µM.
In the case of `O=S(=O)(Nc1cccc(CCOCc2sc3ccccc3c2Cl)c1)C(F)(F)F` [Example 66, N-{3-[2-(3-Chloro-benzo[b]thiophen-2-ylmethoxy)-ethyl]-phenyl}-C,C,C-trifluoro-methanesulfonamide], the melting point lay within 85 to 87 °C.
Regarding `O=S(=O)(Nc1cccc(CCOCc2ccc(C3CCCCC3)cc2)c1)C(F)(F)F` [Example 68, N-{3-[2-(4-cyclohexyl-benzyloxy)-ethyl]-phenyl}-C,C,C-trifluoro-methane sulfonamide], the melting point was in the range of 90 to 92 °C.
Consider `CC(C)(C)c1ccc(COCCc2cccc(NS(=O)(=O)C(F)(F)F)c2)cc1` [Example 69, N-{3-[2-(4-tert-Butyl-benzyloxy)-ethyl]-phenyl}-C,C,C-trifluoro-methane sulfonamide], for which the melting point lay in the range of 40 to 42 °C.
In the case of `O=S(=O)(Nc1cccc(CCOCc2ccc(Br)cc2F)c1)C(F)(F)F` [Example 72, N-{3-[2-(4-Bromo-2-fluoro-benzyloxy)-ethyl]-phenyl}-C,C,C-trifluoro-methanesulfonamide], the melting point lay within 48 to 50 °C.
On to `O=S(=O)(Nc1cccc(CCOCc2cccc(OCc3ccccc3)c2)c1)C(F)(F)F` [Example 73, N-{3-[2-(3-benzyloxy-benzyloxy)-ethyl]-phenyl}-C,C,C-trifluoro-methanesulfonamide], for which the melting point lay in the range of 62 to 63 °C.
Still for that read-out and setting: the same measure for `O=S(=O)(Nc1cccc(CCOCc2ccc(I)cc2)c1)C(F)(F)F` [Example 74, N-{3-[2-(4-Iodo-benzyloxy)-ethyl]-phenyl}-C,C,C-trifluoro-methanesulfonamide]: 48 to 50 °C; for `O=S(=O)(Nc1cccc(CCOCc2ccc(Oc3ccccc3)cc2)c1)C(F)(F)F` [Example 76, N-{3-[2-(4-Phenoxy-benzyloxy)-ethyl]-phenyl}-C,C,C-trifluoro-methane sulfonamide]: 47 to 49 °C; for `CC(C)(C)c1ccc(-c2nc(COCCc3cccc(NS(=O)(=O)C(F)(F)F)c3)no2)cc1` [Example 81, N-{3-[2-(5-(4-tert-Butyl-phenyl)-[1,2,4]oxadiazol-3-ylmethoxy)-ethyl]-phenyl}-C,C,C-trifluoro-methanesulfonamide]: 75 to 77 °C.
For `O=S(=O)(NCCc1cccc(OCc2noc(-c3ccc(C(F)(F)F)cc3)n2)c1)C(F)(F)F` [Example 82, N-{2-[3-(5-(4-Trifluoromethyl-phenyl) [1,2,4]oxadiazol-3-ylmethoxy)-phenyl]-ethyl}-C,C,C-trifluoro-methanesulfonamide], the melting point fell in the range of 83 to 86 °C.
The same measure, in the same setting: the same measure for `O=S(=O)(Nc1cccc(CCOCc2noc(-c3cccc(C(F)(F)F)c3)n2)c1)C(F)(F)F` [Example 83, N-{3-[2-(5-(3-trifluoromethyl-phenyl)-[1,2,4]oxadiazol-3-ylmethoxy)-ethyl]-phenyl}-C,C,C-trifluoro-methanesulfonamide]: 62 to 64 °C; for `COc1cccc(-c2nc(COCCc3cccc(NS(=O)(=O)C(F)(F)F)c3)no2)c1` [Example 84, N-{3-[2-(5-(3-methoxy-phenyl)-[1,2,4]oxadiazol-3-ylmethoxy)-ethyl]-phenyl}-C,C,C-trifluoro-methanesulfonamide]: 52 to 54 °C.
The same measure, in the same setting: the same measure for `COc1ccc(-c2nc(COCCc3cccc(NS(=O)(=O)C(F)(F)F)c3)no2)cc1` [Example 85, N-{3-[2-(5-(4-methoxy-phenyl)-[1,2,4]oxadiazol-3-ylmethoxy)-ethyl]-phenyl}-C,C,C-trifluoro-methanesulfonamide]: 88 to 90 °C; for `O=S(=O)(Nc1cccc(CCOCc2noc(-c3ccc(C(F)(F)F)cc3)n2)c1)C(F)(F)F` [Example 87, N-{3-[2-(5-(4-trifluoromethylphenyl)-[1,2,4]oxadiazol-3-ylmethoxy)-ethyl]-phenyl}-C,C,C-trifluoro-methanesulfonamide]: 83 to 86 °C.
For `O=C(O)c1ncccc1S` [Na-Mercaptopicolinic acid, reference compound], half-maximal inhibition in series [1] (IC50) required 45 µM.
